System: Penicillium chrysogenum
Experiment: Potentiation of hygromycin B toxicity by trifluoroperazine, growth of regenerating protoplasts on agar
Format: cell-based
Parameters: key to Growth: +: growth of the Penicillium chrysogenum cells, and therefore, that the toxic effect of hygromycin B was not potentiated by TFP; -: no growth of the Penicillium chrysogenum culture, and therefore, that the toxic effect of hygromycin B was potentiated by trifluoroperazine
Conditions: for Growth: 28°C, 48 hours
Description: Protoplasts of Penicillium chrysogenum (Eli Lilly and Co.) were formed with Novozyme 234 in substantial accordance with the procedure described for Cephalosporium acremonium by Queener et al., 1985 Microbiology 1985, American Society for Microbiology, pp 468-472, and by Skatrud et al., 1987, Current Genetics, 12:337-348. During formation of the P. chrysogenum, protoplasts and subsequent cell wall regeneration, sucrose was used as an osmotic stabilizer rather than sodium chloride as described in the above references. Petri plates were prepared that contained an agar layer consisting of: yeast nitrogen base without amino acids and ammonium sulfate (1.7 g/L) (Difco Laboratories, Detroit, MI); ammonium sulfate (5 g/L); and sucrose (125 g/L); trifluoroperazine (final concentration […]; Sigma Chemical Co. Catalog #T-8516); and cadmium chloride (final concentration 3 mM/ml). Approximately 3 X 10⁷ Penicillium chrysogenum protoplasts were delivered to the surface of the solidified agar in a 4 ml soft agar overlay consisting of the following ingredients: yeast nitrogen base without amino acids and ammonium sulfate (1.7 g/L) (Difco Laboratories, Detroit, MI); ammonium sulfate (5 g/L); sucrose (125 g/L); and agar (4 g/L). The plates were incubated overnight at 15°C.
The next morning hygromycin B (final concentration […]; Boehringer Mannheim Catalog #843 555) was added to the plates in a 4 ml soft agar overlay consisting of yeast nitrogen base without amino acids and ammonium sulfate (1.7 g/L) (Difco Laboratories, Detroit, MI); ammonium sulfate (5 g/L); sucrose (125 g/L); and agar (4 g/L). The plates were incubated at 28°C for 48 hours.
In Table 2, a result of "+" indicates growth of the Penicillium chrysogenum cells, and therefore, that the toxic effect of hygromycin B was not potentiated by TFP. A result of "-" indicates no growth of the Penicillium chrysogenum culture, and therefore, that the toxic effect of hygromycin B was potentiated by trifluoroperazine.

Structure (SMILES) | Growth (Hygromycin B 0.250 mg/ml, TFP 250 µM) | Growth (Hygromycin B 1 mg/ml, TFP 500 µM) | Growth (Hygromycin B 2 mg/ml, TFP 500 µM) | Growth (Hygromycin B 3 mg/ml, TFP 500 µM) | Growth (Hygromycin B 4 mg/ml, TFP 500 µM) | Growth (Hygromycin B 5 mg/ml, TFP 0 µM) | Growth (Hygromycin B 5 mg/ml, TFP 500 µM) | Growth (Hygromycin B 0 mg/ml, TFP 500 µM) | toxic effect of hygromycin B on Penicillium chrysogenum (in the presence of triflouroperazine, summary of Table 2)
CN[C@H]1C[C@@H](N)[C@H](O)[C@@H](O[C@@H]2O[C@H](CO)[C@H](O)[C@@H]3OC4(O[C@H]23)O[C@H]([C@@H](N)CO)[C@H](O)[C@H](O)[C@H]4O)[C@@H]1O (stereo partly drawn) [Hygromycin B, hygromycin B] | - | - | - | - | - | + | - |  | 
CN1CCN(CCCN2c3ccccc3Sc3ccc(C(F)(F)F)cc32)CC1 [TFP, trifluoroperazine] |  |  |  |  |  |  |  | + | potentiated

Source: patent EP0643971A2, “Antifungal compositions consisting of an antifungal agent, e.g. antibiotic R-106I, and a fungal MDR inhibitor” (priority 1993, dated 1995)
